According to patent US11819483B2, “Combination therapy to treat urea cycle disorders” (Baylor College of Medicine, priority 2017, dated 2023):
Where two headings read alike, the source gives them in different places. Marks after values point to notes of the source that are not given here.

Assays:
[1] = Urinary excretion of phenylbutyrate, benzoate and their conjugated products; nitrogen conjugation in 24 h urine; conditions: for Total N excreted as conjugated products, % test meal: fraction of nitrogen content of test meal; for efficacy of conjugation (percent of dose recovered as conjugate in 24 h urine): given as sole treatments, highest dose; for Conjugation efficacy: nitrogen conjugated divided by amount of drug provided
Protocol: (§1) This was a randomized, three-arm, crossover study. Each arm was completed over a four-day period with a washout period of at least 7 days between any two of the treatment arms (FIG. 1). […] The treatments were designed to provide isomolar amount of drugs and the total daily dose was administered in three equally divided doses.
(§2) On day 1 of study arm 1, detailed medical history review and physical examination were performed. Complete blood count, comprehensive metabolic panel, plasma ammonia, and urinalysis (safety laboratory measurements) were performed. Urine pregnancy test was performed on all females. Meals prepared at the CNRC to provide 0.8 g·kg^−1·day^−1 protein and 32 kcal·kg^−1·day^−1 were given for next three days. The standardized protein and caloric intake allowed for comparison of nitrogen excretion among the three arms. Subjects were randomized to a predetermined treatment sequence and the first dose of the appropriate medication was administered under supervision. Subjects took the study medication with meals for three days (08:00 breakfast; 13:00 lunch; 19:00 dinner) (FIG. 1). […] On day 3, subjects omitted the 19:00 dose of the medication to prevent interference with the analysis on day 4 from metabolite conjugates from the previous day. On day 4, fasting blood sample was obtained for the determination of plasma amino acids and urea concentrations, background isotopic enrichments, basic metabolic profile, complete blood count, and plasma concentrations of phenylbutyrate, benzoate, PAGN, and HA. Urine was collected for measurements of urea, phenylbutyrate, benzoate, PAGN, and HA. At 0 hours, the test meal containing half of the daily dietary allowance of protein (0.4 g·kg^−1) was provided by a commercial liquid meal replacement (Ensure Plus, Abbott, Abbot Park, Ill.) and ^15N labeled spirulina (40 mg·kg^−1; ISOTEC, Miamisburg, Ohio). […] A dose of 40 mg·kg^−1 labeled ^15N-labeled spirulina was estimated to result in dietary enrichment of ˜5 mole percent excess. The morning meal, which was ingested in ˜10 minutes, was followed by a dose of study medication and an intravenous bolus dose of urea tracer, [^13C^18O]urea (6 mmol/subject; ISOTEC, Miamisburg, Ohio). Blood samples to determine concentrations and isotopic enrichments of the drugs and their conjugated products, as well as amino acids and urea were collected every 30 minutes for the first four hours and then hourly between hours 4 and 8 (FIG. 1). Urine was collected in four 2-hour batched periods during the eight hour admission period. […] The procedures for the study arms 2 and 3 were identical to those performed in arm 1.
(§3) Plasma and urinary drugs and their conjugated products as well as urea and amino acids were determined by mass spectrometry and quantitated based on the dilution of labeled internal standards. Total urinary nitrogen was determined using the micro-Kjeldahl method.
Plasma and urinary phenylbutyrate, PAA, and benzoate were determined as their pentafluorobenzyl derivatives by NCI-GC-MS; . [^2H5] […] 4-phenylbutyric acids (C/D/N Isotopes, Quebec, Canada) were used as internal standards. Underivatized PAGN and HA were measured by HESI LC-MS/MS; [^2H5] PAGN and [^2H5] HA (C/D/N Isotopes, Quebec, Canada) were used as internal standards.
Accordingly, these background values were subtracted from the values obtained during the treatment with phenylbutyrate and benzoate. The total amount of nitrogen conjugated was expressed as fraction of the test meal, by dividing by the total nitrogen content of the test meal. The conjugation of dietary nitrogen was calculated as the amount of ^15N conjugated by multiplying the total amount of nitrogen conjugated by the respective ^15N enrichment. For PAGN, the labeling of the amino and amido group were considered.

[2] = Urea metabolism and total urinary nitrogen excretion; assay type: in vivo, human; parameters: Urinary urea-^15N: unit not given here; conditions: for Urinary N: N intake 9.81 g/d; for Urea production: [^13C^18O]urea tracer, day 4; for ^15N as % of test meal: urinary urea ^15N
Protocol: as §1, §2, §3
Plasma amino acids concentrations and enrichments were determined by HESI LC-MS/MS. A cell free U-[^13C^15N] amino acid mix was used as internal standard. Total urinary nitrogen was determined using the micro-Kjeldahl method.

[3] = day 4
[4] = clinical; conditions: human, in vivo
[5] = plasma
[6] = 24 h urine, ^15N labeled test meal
[7] = 24 h urine, background subtracted

Compound	urinary excretion of unconjugated drug ([1]; 24 h urine)	Total 15N in conjugated products, % test meal [1, 6] [% test meal]	Total N excreted as conjugated products, % test meal ([1]; 24 h urine)	efficacy of conjugation (percent of dose recovered as conjugate in 24 h urine) [1] [%]	Conjugation efficacy ([1]; gram basis)	Conjugation efficacy ([1]; molar basis)	% N excreted from daily intake ([2]; 24 h urine) [%]	Urea N as a % total urinary N ([2]; 24 h urine) [%]	Urinary Urea N ([2]; 24 h urine) [g/day]	Urinary N ([2]; 24 h urine) [g/day]	Urea production [2] [µmol/kg/h]	^15N as % of test meal ([2]; 24 h urine) [%]	also measured
O=C([O-])c1ccccc1.[Na+] [NaBz, sodium benzoate]	negligible	1.51	4.65 ^b % test meal	~65	64.2^b mg N/g drug	9.25^b mg N/mmol drug	65.1	65.1	4.20	6.38	197	14.7	Urinary excretion of Bz ([1]; 24 h urine): 6.5 μmol/24 h; Urinary excretion of Bz, % of dose ([1]; 24 h urine): 0.02 % of dose; Urinary HA (Conjugated ^15N Products) [1, 6]: 253.9 μmol/24 h; Urinary excretion of HA [1, 7]: 16.4 mmol/24 h; Urinary excretion of HA, % of dose ([1]; 24 h urine, percent of benzoate dose recovered as HA): 66.1 % of dose; Bz AUC0-8 ([3]; plasma benzoate, 0 to 8 h): 301.7 µmol/L; Bz Tmax ([3]; plasma benzoate): 1.6^b h; Bz Tmax ([3]; plasma benzoate, listed as benzoate): ~1.5 h; Benzoate Cmax and AUC0-8, NaBz arm relative to MIX arm ([3]; plasma): 4-5 times; Cmax ([3]; read-out: Bz Cmax, plasma benzoate): 217 µM
O=C(O)Cc1ccccc1 [PAA, phenylacetate]	negligible												
O=C(O)CNC(=O)c1ccccc1 [hippuric acid]													Tmax [4]: 2.2 h
sodium phenylbutyrate [NaPB]	negligible	1.62	8.74 ^a % test meal	~65	92.5^ab mg N/g drug	17.2^a mg N/mmol drug	65.6	63.6	4.16	6.47	192	15.2	leucine AUC0-8 ([5]; response to phenylbutyrate inclusion in the treatment, P=0.032): reduction; tryptophan AUC0-8 ([5]; response to phenylbutyrate, P<0.001): reduction; Total N excreted as conjugated products ([1]; 24 h urine): 30.7 mmol/24 h; Urinary excretion of PAA ([1]; 24 h urine): 40.3 μmol/24 h; Urinary excretion of PAA, % of dose ([1]; 24 h urine): 0.16 % of dose; Urinary excretion of PB ([1]; 24 h urine): 32.3 μmol/24 h; Urinary excretion of PB, % of dose ([1]; 24 h urine): 0.13 % of dose; Urinary 2&5-[^15N] PAGN [1, 6]: 38.9 μmol/24 h; Urinary 2-[^15N] PAGN [1, 6]: 43.9 μmol/24 h; Urinary excretion of PAGN [1, 7]: 15.3 mmol/24 h; Urinary excretion of PAGN, % of dose ([1]; 24 h urine, percent of phenylbutyrate dose recovered as PAGN): 61.5 % of dose; Urinary urea-^15N [2, 6]: 37.0
